Measured values taken from patent US20240116985A1, “STAPLED PEPTIDES AND METHODS THEREOF” (priority 2020, published 2024).

How the values were obtained:
[1] = target: T1, full-length beta-Catenin (Uniprot ID P35222) (Homo sapiens, UniProt P35222); assay: Fluorescence polarization IC50 (beta-catenin / 5FAM-TCF4 10-53 competition); type: binding; settings: fluorescence polarization; read-out: beta-Catenin FP IC50
T1 construct: 10 nM full-length beta-Catenin (Uniprot ID P35222)
T1 sequence (P35222 1-781): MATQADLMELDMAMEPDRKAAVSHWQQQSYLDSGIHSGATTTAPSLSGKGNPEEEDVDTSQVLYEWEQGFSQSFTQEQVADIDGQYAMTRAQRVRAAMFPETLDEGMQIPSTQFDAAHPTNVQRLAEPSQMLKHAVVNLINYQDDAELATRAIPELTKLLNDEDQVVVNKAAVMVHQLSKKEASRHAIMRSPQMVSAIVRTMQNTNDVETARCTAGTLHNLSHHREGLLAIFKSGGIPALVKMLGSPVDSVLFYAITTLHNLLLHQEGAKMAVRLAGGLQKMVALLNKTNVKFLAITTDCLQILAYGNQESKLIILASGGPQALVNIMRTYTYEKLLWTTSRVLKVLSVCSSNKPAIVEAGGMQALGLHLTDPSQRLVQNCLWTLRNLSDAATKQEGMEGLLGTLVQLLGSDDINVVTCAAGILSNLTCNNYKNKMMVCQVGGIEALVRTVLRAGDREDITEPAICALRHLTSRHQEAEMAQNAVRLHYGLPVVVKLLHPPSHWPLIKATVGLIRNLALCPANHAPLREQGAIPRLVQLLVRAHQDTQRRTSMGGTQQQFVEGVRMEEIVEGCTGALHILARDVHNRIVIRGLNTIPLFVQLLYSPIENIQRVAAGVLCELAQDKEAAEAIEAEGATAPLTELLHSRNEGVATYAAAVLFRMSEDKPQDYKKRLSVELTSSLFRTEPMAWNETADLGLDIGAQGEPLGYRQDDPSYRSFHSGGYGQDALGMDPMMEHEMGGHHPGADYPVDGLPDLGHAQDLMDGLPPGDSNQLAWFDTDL

[2] = target: T2, beta-catenin/TCF4 engagement (Homo sapiens, UniProt P35222); assay: Nano-BRET target engagement assay (B-cat-Halo & TCF4-Luc in HEK293 cells); type: cell-based; settings: absolute IC50; read-out: NanoBRET Abs IC50
T2 construct: expressed in transfected cells; host or cells: HEK293
T2 sequence (P35222 1-781): T1 sequence (P35222 1-781)

Compound | IC50 [1] | IC50 [2]
CC(=O)N1CCC[C@]12CC=CCCCC1(CCCC=CCCCOC(=O)N3CC[C@@](C(=O)N[C@@H](Cc4ccsc4)C(=O)N[C@@H](Cc4csc5ccccc45)C(=O)N[C@@H](C)C(N)=O)(C3)NC(=O)[C@H](Cc3ccccc3)NC(=O)[C@H](Cc3ccccc3)NC(=O)[C@H](C)NC(=O)[C@H](C)NC(=O)[C@H](Cc3cccc(C(=O)O)c3)NC(=O)[C@H](CC(=O)O)NC1=O)NC(=O)[C@H](CC(C)(C)C)NC(=O)[C@H](CC(=O)O)NC2=O (stereo partly drawn) [I-2259, Ac-PL3-Asp-Npg-B5-Asp-3COOHF-Ala-Ala-Phe-Phe-PyrS2-3Thi-BztA-Ala-NH2] | 30 nM | 4300 nM
CC(=O)N1CCC[C@]12CC=CCCCC1(CCCC=CCCCOC(=O)N3CC[C@@](C(=O)N[C@@H](Cc4cccc(F)c4)C(=O)N[C@@H](Cc4csc5ccccc45)C(=O)N[C@@H](C)C(N)=O)(C3)NC(=O)[C@H](CC(C)C)NC(=O)[C@H](Cc3ccccc3)NC(=O)[C@H](C)NC(=O)[C@H](C)NC(=O)[C@H](Cc3cccc(C(=O)O)c3)NC(=O)[C@H](CC(=O)O)NC1=O)NC(=O)[C@H](CC(C)(C)C)NC(=O)[C@H](CC(=O)O)NC2=O (stereo partly drawn) [I-2261, Ac-PL3-Asp-Npg-B5-Asp-3COOHF-Ala-Ala-Phe-Leu-PyrS2-3FF-BztA-Ala-NH2] | 34 nM | 6400 nM
CC(=O)N1CCC[C@]12CC=CCCCC1(CCCC=CCCCOC(=O)N3CC[C@@](C(=O)N[C@@H](Cc4ccsc4)C(=O)N[C@@H](Cc4csc5ccccc45)C(=O)N[C@@H](C)C(N)=O)(C3)NC(=O)[C@H](CC(C)C)NC(=O)[C@H](Cc3ccc(F)cc3)NC(=O)[C@H](C)NC(=O)[C@H](C)NC(=O)[C@H](Cc3cccc(C(=O)O)c3)NC(=O)[C@H](CC(=O)O)NC1=O)NC(=O)[C@H](CC(C)(C)C)NC(=O)[C@H](CC(=O)O)NC2=O (stereo partly drawn) [I-2262, Ac-PL3-Asp-Npg-B5-Asp-3COOHF-Ala-Ala-4FF-Leu-PyrS2-3Thi-BztA-Ala-NH2] | 18 nM | 3700 nM
CC(=O)N1CC2CC1C(=O)N[C@@H](CC(=O)O)C(=O)N[C@@H](CC(C)(C)C)C(=O)NC1(CCCCCCCCOC(=O)N3CC[C@@](C(=O)N[C@@H](Cc4ccsc4)C(=O)N[C@@H](Cc4csc5ccccc45)C(=O)N[C@@H](CCC(N)=O)C(N)=O)(C3)NC(=O)[C@H](CC(C)C)NC(=O)[C@H](Cc3ccccc3)NC(=O)[C@H](C)NC(=O)[C@H](C)NC(=O)[C@H](CN(CC(=O)O)CC(F)(F)F)NC(=O)[C@H](CC(=O)O)NC1=O)CCCCCCCC(=O)O2 (stereo partly drawn) [I-2265, Ac-HypEs5-Asp-Npg-B5-Asp-TfeGA-Ala-Ala-Phe-Leu-PyrS2-3Thi-BztA-Gln-NH2] | 67 nM | > 20000 nM

Continued by falling IC50 [1], values first:

IC50 [1] | IC50 [2] | Compound
47 nM | 4300 nM | CC(=O)N1CCC[C@]12CC=CCCCC1(CCCC=CCCCOC(=O)N3CC[C@@](C(=O)N[C@@H](Cc4ccc(F)cc4)C(=O)N[C@@H](Cc4csc5ccccc45)C(=O)N[C@@H](C)C(N)=O)(C3)NC(=O)[C@H](CC(C)C)NC(=O)[C@H](Cc3ccccc3)NC(=O)[C@H](C)NC(=O)[C@H](C)NC(=O)[C@H](Cc3cccc(C(=O)O)c3)NC(=O)[C@H](CC(=O)O)NC1=O)NC(=O)[C@H](CC(C)(C)C)NC(=O)[C@H](CC(=O)O)NC2=O (stereo partly drawn) [I-2263, Ac-PL3-Asp-Npg-B5-Asp-3COOHF-Ala-Ala-Phe-Leu-PyrS2-4FF-BztA-Ala-NH2]
21 nM | 3100 nM | CC(=O)N1CCC[C@]12CC=CCCCC1(CCCC=CCCCOC(=O)N3CC[C@@](C(=O)N[C@@H](Cc4ccsc4)C(=O)N[C@@H](Cc4csc5ccccc45)C(=O)N[C@@H](C)C(N)=O)(C3)NC(=O)[C@H](CC(C)C)NC(=O)[C@H](Cc3cccc(F)c3)NC(=O)[C@H](C)NC(=O)[C@H](C)NC(=O)[C@H](Cc3cccc(C(=O)O)c3)NC(=O)[C@H](CC(=O)O)NC1=O)NC(=O)[C@H](CC(C)(C)C)NC(=O)[C@H](CC(=O)O)NC2=O (stereo partly drawn) [I-2260, Ac-PL3-Asp-Npg-B5-Asp-3COOHF-Ala-Ala-3FF-Leu-PyrS2-3Thi-BztA-Ala-NH2]
